Key:
[1] = target: T1, HSA (Homo sapiens, UniProt P02768); test: Quenching of HSA intrinsic fluorescence by MCD, synchronous fluorescence scanning; type: binding; conditions: for decrease of the intensity of the SFS band of HSA, tyrosine: Δλ = 15 nm; for decrease of the intensity of the SFS band of HSA, tyrosine / decrease of the intensity of the SFS band of HSA, tryptophan: cMCD up to 5.3 × 10^−5 mol L^−1; for decrease of the intensity of the SFS band of HSA, tryptophan: Δλ = 60 nm
T1 construct: purchased Sigma-Aldrich
Method: In order to determine the binding sites of HSA when interacting with MCD and to evaluate possible changes in these sites, the fluorescence spectra of tyrosine and tryptophan groups of HSA in the presence of MCD were measured in the synchronous fluorescence scanning (SFS) mode. The positions of the SF spectra of protein amino acid residues depend on their microsolvation (micropolarity of the medium). Thus, SFS allows for obtaining data on the effect of complexation on the microenvironment of fluorophore groups of protein molecules.
Quenching of intrinsic HSA fluorescence was analyzed using the Stern–Volmer and Lehrer–Leavis relationships (see Equations (3) and (4)). The experimental dependences approximated by linear anamorphoses (R^2~0.9–0.98) were better in the coordinates of the Lehrer–Leavis model than in the Stern–Volmer model (the Stern–Volmer plots were nonlinear). The Lehrer–Leavis model assumes partial accessibility of HSA chromophores for quenching by MCD (the resulting quenching constants are shown in Table 6).
(§1) Absorption spectra were recorded on an SF-2000 spectrophotometer (Experimental-Construction Company “Spectrum”, St. Petersburg, Russia); fluorescence and fluorescence excitation spectra were recorded on a Fluorat-02-Panorama spectrofluorimeter (Group of Companies “Lumex”, St. Petersburg, Russia). The fluorescence and fluorescence excitation spectra were corrected for the spectral characteristics of the instrument (excitation channel signal) and sample transmission. Changes in the intrinsic fluorescence of HSA upon binding of MCD (in the presence of the dyes) were recorded in the synchronous fluorescence scanning (SFS) mode. In SFS mode, when registering spectra, a fixed difference Δλ= λfl − λex is maintained for the channels of excitation and registration. Synchronous scanning spectra were obtained at Δλ = 15 nm (fluorescence of tyrosine residues in the HSA molecule) and Δλ = 60 nm (fluorescence of tryptophan). The spectra were measured in 1 cm quartz semi-micro cells (Bio-Rad, Hercules, CA, USA).
The Stern–Volmer (Equation (3)) and Lehrer–Leavis (Equation (4)) dependences were used to analyze the results of measurements of HSA intrinsic fluorescence (synchronous scanning mode) in the presence of MCD [56, 57]. (3) I0/I=1 + KSV[Q] (4) I0/(I0−I)=1 /α+ 1/(αKSV[Q]) where I0 and I are the fluorescence intensities in the absence and in the presence of a quencher, respectively; [Q] is the quencher concentration; KSV is the Stern–Volmer quenching constant; and α is the proportion of fluorophores in the biomolecule available to the quencher in the Lehrer–Leavis model. […]
1. Spectral‐Fluorescent Titration
In experiments on spectral‐fluorescence titration, MCD 1–4 were dosed from their concentrated st ock solutions in EtOH. Microvolumes (~0.5–5 μL) were dosed into the measuring cell (dilution 1:500 – 1:1000).
In experiments with biomacromolecules, microvolumes of concentrated stock solutions of dsDNA, ssDNA and HSA were injected directly into the cells. Spectral‐fluorescent characteristics of MCD in complexes with biomacromolecules were studied by titration of dye solutions (cdye ~ 1 – 2 × 10–6 mol L–1) with increasing concentrations of biopolymers. Measurements of the intrinsic fluorescence of HSA in the presence of MCD were carried out at a constant concentration of HSA (cHSA ~ 2.0 × 10–5 mol L–1) by titration with increasing concentrations of dyes. After stirring, the absorption and fluorescence spectra of the dyes were recorded several times. Upon registration, the fluorescence and fl uorescence excitation spectra were corrected for the spectral characteristic of the excitation channel and for the absorption of […]
2. Fluorescence Quantum Yields
Determination of the fluorescence quantum yields of MCD 1–4 was performed using the standard […]

[2] = test system: ssDNA; test: Spectral fluorescent titration of the dyes with ssDNA in PBS; type: binding, chick; conditions: for φfl^b, fluorescence quantum yield of the dye in the presence of biopolymer: cssDNA~5 × 10^−5 mol L^−1; for decrease of the observed extinction coefficients: cssDNA~8 × 10^−5 mol L^−1; for LOD: detection of ssDNA; for LOQ: quantification of ssDNA; for K1Sc, complexation constant (Scatchard) / nHill, Hill coefficient / KeffHill, effective complexation constant (Hill) / KeffBH, effective complexation constant (Benesi–Hildebrand) / αb, proportion of bound dye / K2Sc, complexation constant (Scatchard) / Fmax/F0, fluorescence growth at 100% binding / nSc, stoichiometric coefficient (Scatchard): ssDNA; for KeffHill, effective complexation constant (Hill) / KeffBH, effective complexation constant (Benesi–Hildebrand): PBS buffer; for KeffBH, effective complexation constant (Benesi–Hildebrand): fluorescent titration; for αb, proportion of bound dye: cbiomol = 5 × 10^−5 mol L^−1; for K2Sc, complexation constant (Scatchard): constant and nSc both varied; for Fmax/F0, fluorescence growth at 100% binding: from the Benesi–Hildebrand dependence; for nSc, stoichiometric coefficient (Scatchard): per one base
Source text: Complexation of MCD 1–4 with DNA (double-stranded and single-stranded) and with human serum albumin (HSA) was studied by spectral fluorescent methods in a wide range of biopolymer concentrations (cdsDNA = 0–1.5 × 10^−4 mol L^−1; cssDNA = 0–1.4 × 10^−4 mol L^−1; cHSA = 0–1.4 × 10^−4 mol L^−1 in PBS buffer). The absorption, fluorescence, and fluorescence excitation spectra of MCD 1 and 3 in the presence of dsDNA are shown in Figure 3 and Figure 4, respectively.
The complication of chemical equilibrium, and the variety of interactions between MCD and biopolymer (dye aggregation/deaggregation, the possibility of forming complexes of several types with DNA/HSA) makes it problematic to determine the exact values of the complexation constants of the dyes with DNA. The values of the effective equilibrium constants of the complexation reaction of MCD with biopolymers (Keff, L mol^−1, see Table 7) were estimated from spectral fluorescent data. In this case, we had to assume a simple equilibrium MCD (monomer, free) ⇄ MCD (monomer, bound). For these purposes, we used the Benesi–Hildebrand [59], Hill, and Scatchard formalisms (See Supplementary Materials, Equations (S9)–(S13)). For dsDNA, fitting according to the modified Scatchard equation was carried out assuming one dye molecule per one DNA turn (K1Sc at nSc = const = 10 b.p.), as well as varying both the constant (K2Sc) and the stoichiometric coefficient (nSc). In the case of ssDNA, nSc is given per one base; for HSA, nSc = 1.
Single-stranded form of DNA (single-stranded DNA; ssDNA) was obtained according to the method described in [74]. The concentrations of DNA and the dyes were controlled spectrophotometrically. Molar extinction coefficient of dsDNA (ε, L⋅mol^−1⋅cm^−1) was taken to be 13,200 L mol^−1 cm^−1 (per base pair); for ssDNA, ε = 9045 L mol^−1 cm^−1 (per one base) was used. For MCD 1 and 2 in an aqueous buffer solution, we used extinction coefficients ε = 40,000 and 68,000 L mol^−1 cm^−1, respectively, which were taken from. For MCD 3 and 4, the molar extinction coefficients in ethanol solution were 69,200 and 49,000 L mol^−1 cm^−1 (taken from). […] Spectral fluorescent characteristics of MCD in complexes with biomacromolecules were studied by titration of dye solutions (see Supplementary Materials). The thermal dissociation (“melting”) of dsDNA in the presence of MCD was studied spectrophotometrically (λabs = 260 nm), the sample was heated (t° = 30–95 °C) using Peltier cells, and the temperature was controlled using a thermocouple. Melting points tm, corresponding to 50% hyperchromia of DNA samples were obtained.
as §1
The equilibrium constants of MCD complexation with biomolecules (Ka, L mol^−1) were obtained from fluorescence spectra using the Benesi–Hildebrand [59], Hill, and Scatchard equations [61] (see Supplementary Materials, Equations (S9)–(S13)). […]

T1 sequence (P02768 25-609): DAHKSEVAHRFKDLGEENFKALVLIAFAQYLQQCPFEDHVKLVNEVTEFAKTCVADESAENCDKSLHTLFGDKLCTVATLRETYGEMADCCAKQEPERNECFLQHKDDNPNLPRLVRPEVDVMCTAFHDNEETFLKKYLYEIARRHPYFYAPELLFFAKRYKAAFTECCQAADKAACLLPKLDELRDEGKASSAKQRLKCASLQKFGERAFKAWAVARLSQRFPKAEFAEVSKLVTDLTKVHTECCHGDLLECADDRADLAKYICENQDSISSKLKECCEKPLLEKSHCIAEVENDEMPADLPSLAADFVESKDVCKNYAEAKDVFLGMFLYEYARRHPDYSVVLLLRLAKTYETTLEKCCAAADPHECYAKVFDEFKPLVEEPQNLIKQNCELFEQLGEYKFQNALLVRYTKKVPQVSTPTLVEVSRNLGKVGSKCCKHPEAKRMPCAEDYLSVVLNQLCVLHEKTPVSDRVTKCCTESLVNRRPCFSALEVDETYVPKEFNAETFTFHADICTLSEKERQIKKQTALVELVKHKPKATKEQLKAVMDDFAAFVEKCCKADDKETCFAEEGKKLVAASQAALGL

SMILES	KSV, Stern–Volmer quenching constant (Lehrer–Leavis model) ([1]; Trp, SFS Δλ = 60 nm) [L/mol]	α, proportion of fluorophores available to the quencher (Lehrer–Leavis model) ([1]; Trp, SFS Δλ = 60 nm)	KSV, Stern–Volmer quenching constant (Lehrer–Leavis model) ([1]; Tyr, SFS Δλ = 15 nm) [L/mol]	α, proportion of fluorophores available to the quencher (Lehrer–Leavis model) ([1]; Tyr, SFS Δλ = 15 nm)	decrease of the intensity of the SFS band of HSA, tyrosine [1] [%]	decrease of the intensity of the SFS band of HSA, tryptophan [1] [%]	Ifl/Ifl0, relative increase in the fluorescence intensity ([2]; cssDNA = 5 × 10^−5 mol L^−1)	φfl^b, fluorescence quantum yield of the dye in the presence of biopolymer [2] [%]	decrease of the observed extinction coefficients [2] [%]	LOD [2] [nM]	LOQ [2] [nM]	K1Sc, complexation constant (Scatchard) [2] [L/mol]	nHill, Hill coefficient [2]	KeffHill, effective complexation constant (Hill) [2] [L/mol]	KeffBH, effective complexation constant (Benesi–Hildebrand) [2] [L/mol]	αb, proportion of bound dye [2] [%]	K2Sc, complexation constant (Scatchard) [2] [L/mol]	Fmax/F0, fluorescence growth at 100% binding [2]	nSc, stoichiometric coefficient (Scatchard) [2]
CC[N+](CC)(CC)CCC[n+]1ccc(/C=C2\Sc3ccccc3N2C)c2ccc(O)cc21 [MCD 1]	40400	0.40	21800	0.61	31	26	~ 40	12 ± 1.5	40	40	120	228000	0.7	2830	24200	60	159000	60.9	2
CCN1/C(=C/c2ccc3ccccc3[n+]2CC)C=Cc2ccccc21 [MCD 4]	21000	0.60	38200	0.33	21	22	–	~1.4 ± 0.2	54	760	2300	65000	0.57	350	6800	25	19500	61	3
CCN1/C(=C/c2sc3ccccc3[n+]2CC)Sc2ccccc21 [MCD 3]	6.12e+07	0.82	112000	0.15	11	6	–	4.7 ± 0.5	–	87	260	112000	0.76	2940	11600	37	430000	71	37

Source: article PMC10531095, “Photonics of Some Monomethine Cyanine Dyes in Solutions and in Complexes with Biomolecules” (International Journal of Molecular Sciences, 2023)
